Consider 1 compound from patent US9763966B2, “Fluocinolone formulations in a biodegradable polymer carrier” (Warsaw Orthopedic, Inc., priority 2008, dated 2017).

The subject of test [1] is chronic constriction injury (CCI) model of neuropathic pain. Kind of test: 2-month chronic constriction injury (CCI) model: mechanical threshold and thermal paw withdrawal latency. Type of test: in vivo. The settings on record: compared with the fluocinolone implants. The method, then:
A 2-month chronic constriction injury (CCI) model of neuropathic pain was used to evaluate different formulations of a corticosteroid, fluocinolone, encapsulated in bioerodable polymers compared to fluocinolone given subcutaneously (SC). Different formulations as provided in Table B below were evaluated for reducing pain-associated behaviors: Thermal paw withdrawal latency was evaluated at baseline 7, 14, 21, 28, 35, 42, 49, and 56 days post-operatively, while mechanical threshold was evaluated at 8, 15, 22, 29, 36, 43, 50, and 57 days post-operatively.
There were seven groups of animals tested. […]
Mechanical allodynia was measured using von Frey monofilaments (Stoelting, Wood Dale, Ill.) with varying stiffness (2.0-15.0 g) on Days 1, 8, 15, 22, 29, 36, 43, 50 and 57 as described previously (see FIGS. 5-6). […] The 50% paw withdrawal threshold response was determined by a sequential increasing and/or decreasing of the stimulus strength (the “up-down method” of Dixon). […] The 50% paw withdrawal threshold was calculated using the formula: 10 (Xf+kd)/10,000, where Xf is the final von Frey filament used (log units), k is a value that analyzes the response pattern (taken from the table published by Chaplan et al.), and d is the mean difference between stimuli (log units). The mean and standard error of the mean (SEM) were determined for each treatment group.

Test [2] has as its system inflammatory response. Kind of test: Implant-site observation: resorption of foreign material and encapsulation (FIGS. 9 and 10). The format is in vivo. As to conditions: picture. An excerpt: FIG. 10 is a picture of fluocinolone implants 20 wt % 85/15 PLGA+10% mPEG and 1% wt fluocinolone 100 DL 7E+5% PEG/7% 50/50 PLGA 7A. The foreign and inflammatory material was not resorbed due to lack of inflammatory response mediated by fluocinolone implants.

Consider `CC1=C(CC(=O)O)c2cc(F)ccc2/C1=C\c1ccc([S+](C)[O-])cc1` (stereo not drawn) [sulindac], for which, in test [1], the pain control response entry is “very similar pain control response”. For the same compound, in test [2], the encapsulation of implant result is “did not prevent encapsulation”; the “resorption of foreign and inflammatory material (sutures)” value was “resorbed”.
